The source of these data is ChEMBL document CHEMBL5696442, “Discovery of type II inhibitors of TGFβ-activated kinase 1 (TAK1) and mitogen-activated protein kinase kinase kinase kinase 2 (MAP4K2)” (J Med Chem, 2015).

Experiment [1] has as its target Serine/threonine-protein kinase Nek4 (Homo sapiens) (UniProt P51957). The experiment is described as follows: Inhibition of NEK4 Lys2 labeling site in human A-375 cells at 5 uM by KiNativ Profiling analysis relative to control. It is filed as cell-based.
Experiment [2] deals with Tyrosine-protein kinase FRK (Homo sapiens) (UniProt P42685). The experiment is described as follows: Inhibition of FRK (unknown origin) at 1 uM by Ambit Kinomescan binding assay relative to control; values are per cent of control.
The next experiment deals with Ephrin type-A receptor 2 (Homo sapiens, UniProt P29317). Description: Inhibition of EPHA2 (unknown origin) at 1 uM by Ambit Kinomescan binding assay relative to control.
Experiment [3] deals with eIF-2-alpha kinase GCN2 (Homo sapiens) (UniProt Q9P2K8). Description: Inhibition of GCN2 domain2 Lys2 labeling site in human A-375 cells at 0.05 uM by KiNativ Profiling analysis relative to control. In kind it is cell-based.
Experiment [4] addresses Serine/threonine-protein kinase tousled-like 2 (Homo sapiens) (UniProt Q86UE8). The experiment is described as follows: Inhibition of TLK2 Lys1 labeling site in human A-375 cells at 0.5 uM by KiNativ Profiling analysis relative to control. It is filed as cell-based.
For experiment [5], the target named is Calcium/calmodulin-dependent protein kinase type II subunit delta (Homo sapiens) (UniProt Q13557). Description: Inhibition of CaMK2d Lys1 labeling site in human A-375 cells at 5 uM by KiNativ Profiling analysis relative to control. It is filed as cell-based.
For experiment [6], the target named is Serine/threonine-protein kinase B-raf (Homo sapiens, UniProt P15056). The experiment is described as follows: Inhibition of BRAF (unknown origin) at 10 uM by Ambit Kinomescan binding assay relative to control.
In experiment [7] the target is Rho-associated protein kinase (Homo sapiens) (UniProt O75116+Q13464). Description: Inhibition of ROCK1/2 K2 labeling site in human Huh-7 cells at 10 uM by KiNativ Profiling analysis relative to control. In kind it is cell-based.
In experiment [8] the target is Microtubule-associated serine/threonine-protein kinase 3 (Homo sapiens) (UniProt O60307). Description: Inhibition of MAST3 Lys2 labeling site in human A-375 cells at 0.05 uM by KiNativ Profiling analysis relative to control. In kind it is cell-based.
For experiment [9], the system named is Tyrosine-protein kinase ABL1 (Homo sapiens), P00519 [H396P]. The experiment is described as follows: Inhibition of ABL1 H396P mutant (unknown origin) at 10 uM by Ambit Kinomescan binding assay relative to control.
Experiment [10] has as its target Serine/threonine-protein kinase PLK1 (Homo sapiens) (UniProt P53350). Description: Inhibition of PLK1 Lys2 labeling site in human A-375 cells at 5 uM by KiNativ Profiling analysis relative to control. It is filed as cell-based.
The target in experiment [11] is Hepatocyte growth factor receptor (Homo sapiens) (UniProt P08581). The experiment is described as follows: Inhibition of MET ACT labeling site in human Huh-7 cells at 1 uM by KiNativ Profiling analysis relative to control. It is filed as cell-based.
The target in experiment [12] is T1, Phosphatidylinositol 5-phosphate 4-kinase type-2 gamma (Homo sapiens) (UniProt Q8TBX8).
T1 sequence (whole entry): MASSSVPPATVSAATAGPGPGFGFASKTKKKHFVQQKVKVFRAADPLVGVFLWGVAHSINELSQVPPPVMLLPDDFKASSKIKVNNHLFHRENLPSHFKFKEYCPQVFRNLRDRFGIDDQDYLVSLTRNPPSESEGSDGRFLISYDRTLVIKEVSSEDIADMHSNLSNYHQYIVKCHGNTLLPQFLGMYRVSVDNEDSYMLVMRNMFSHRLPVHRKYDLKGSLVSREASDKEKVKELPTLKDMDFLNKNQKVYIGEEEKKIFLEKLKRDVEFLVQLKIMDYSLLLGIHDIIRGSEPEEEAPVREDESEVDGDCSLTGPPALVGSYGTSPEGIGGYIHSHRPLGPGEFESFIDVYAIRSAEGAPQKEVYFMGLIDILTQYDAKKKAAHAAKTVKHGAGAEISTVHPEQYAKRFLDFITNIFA
Description: Inhibition of PIP5K2C ATP labeling site harbouring VKELPTLKDMDFLNK in human Huh-7 cells at 10 uM by KiNativ Profiling analysis relative to control. In kind it is cell-based.

The target of experiment [13] is Rho-associated protein kinase 1 (Homo sapiens) (UniProt Q13464). The experiment is described as follows: Inhibition of ROCK1 Lys2 labeling site in human A-375 cells at 0.05 uM by KiNativ Profiling analysis relative to control. It is filed as cell-based.
Experiment [14] deals with DNA-dependent protein kinase catalytic subunit (Homo sapiens) (UniProt P78527). Description: Inhibition of PRKDC ATP labeling site harbouring KGGSWIQEINVAEKNWYPR in human Huh-7 cells at 1 uM by KiNativ Profiling analysis relative to control. It is filed as cell-based.
Experiment [15] addresses T2, Dual specificity mitogen-activated protein kinase kinase 6 (Homo sapiens) (UniProt P52564).
T2 sequence (whole entry): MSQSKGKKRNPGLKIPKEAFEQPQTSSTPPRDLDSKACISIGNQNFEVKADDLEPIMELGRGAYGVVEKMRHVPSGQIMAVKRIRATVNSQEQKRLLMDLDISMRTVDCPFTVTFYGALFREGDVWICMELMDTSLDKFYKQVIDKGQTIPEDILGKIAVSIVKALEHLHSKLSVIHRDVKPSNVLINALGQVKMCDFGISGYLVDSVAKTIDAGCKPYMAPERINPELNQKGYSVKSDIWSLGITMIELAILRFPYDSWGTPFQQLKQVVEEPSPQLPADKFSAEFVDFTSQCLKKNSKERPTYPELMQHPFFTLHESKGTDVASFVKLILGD
The experiment is described as follows: Inhibition of MAP2K6 Lys1 labeling site in human A-375 cells at 0.05 uM by KiNativ Profiling analysis relative to control. It is filed as cell-based.

In experiment [16] the target is LIM domain kinase 2 (Homo sapiens) (UniProt P53671). The experiment is described as follows: Inhibition of LIMK2 (unknown origin) at 10 uM by Ambit Kinomescan binding assay.
The target in experiment [17] is Cyclin-dependent kinase 5 (Homo sapiens) (UniProt Q00535). Description: Inhibition of CDK5 Lys2 labeling site harbouring DLKPQNLLINR in human Huh-7 cell lysate at 1 uM by KiNativ Profiling analysis relative to control. It is filed as subcellular.
Experiment [18] addresses Serine/threonine-protein kinase WNK3 (Homo sapiens) (UniProt Q9BYP7). Description: Inhibition of Wnk3 Lys2 labeling site in human Huh-7 cell lysate at 1 uM by KiNativ Profiling analysis relative to control. It is filed as subcellular.
Experiment [19] concerns the target Mitogen-activated protein kinase kinase kinase 11 (Homo sapiens) (UniProt Q16584). The experiment is described as follows: Inhibition of MLK3 Lys2 labeling site in human Huh-7 cells at 1 uM by KiNativ Profiling analysis relative to control. In kind it is cell-based.
Experiment [20] addresses Phosphatidylinositol 4,5-bisphosphate 3-kinase catalytic subunit alpha isoform (Homo sapiens) (UniProt P42336). Description: Inhibition of PIK3CA ATP labeling site in human Huh-7 cell lysate at 1 uM by KiNativ Profiling analysis relative to control. In kind it is subcellular.
In experiment [21] the target is Serine/threonine-protein kinase Nek6 (Homo sapiens) (UniProt Q9HC98). Description: Inhibition of NEK6 Lys2 labeling site harbouring DIKPANVFITATGVVK in human Huh-7 cell lysate at 1 uM by KiNativ Profiling analysis relative to control. In kind it is subcellular.
For experiment [22], the target named is Tyrosine-protein kinase ABL1 (Homo sapiens, UniProt P00519). Description: Inhibition of ABL ACT labeling site in human Huh-7 cells at 1 uM by KiNativ Profiling analysis relative to control. In kind it is cell-based.

The structures appear in SMILES notation. Activity calls are given as the source filed them. The calls are words filed in the database; no cut-off is given here.

DNA-dependent protein kinase catalytic subunit (Homo sapiens), sequence (P78527 whole entry): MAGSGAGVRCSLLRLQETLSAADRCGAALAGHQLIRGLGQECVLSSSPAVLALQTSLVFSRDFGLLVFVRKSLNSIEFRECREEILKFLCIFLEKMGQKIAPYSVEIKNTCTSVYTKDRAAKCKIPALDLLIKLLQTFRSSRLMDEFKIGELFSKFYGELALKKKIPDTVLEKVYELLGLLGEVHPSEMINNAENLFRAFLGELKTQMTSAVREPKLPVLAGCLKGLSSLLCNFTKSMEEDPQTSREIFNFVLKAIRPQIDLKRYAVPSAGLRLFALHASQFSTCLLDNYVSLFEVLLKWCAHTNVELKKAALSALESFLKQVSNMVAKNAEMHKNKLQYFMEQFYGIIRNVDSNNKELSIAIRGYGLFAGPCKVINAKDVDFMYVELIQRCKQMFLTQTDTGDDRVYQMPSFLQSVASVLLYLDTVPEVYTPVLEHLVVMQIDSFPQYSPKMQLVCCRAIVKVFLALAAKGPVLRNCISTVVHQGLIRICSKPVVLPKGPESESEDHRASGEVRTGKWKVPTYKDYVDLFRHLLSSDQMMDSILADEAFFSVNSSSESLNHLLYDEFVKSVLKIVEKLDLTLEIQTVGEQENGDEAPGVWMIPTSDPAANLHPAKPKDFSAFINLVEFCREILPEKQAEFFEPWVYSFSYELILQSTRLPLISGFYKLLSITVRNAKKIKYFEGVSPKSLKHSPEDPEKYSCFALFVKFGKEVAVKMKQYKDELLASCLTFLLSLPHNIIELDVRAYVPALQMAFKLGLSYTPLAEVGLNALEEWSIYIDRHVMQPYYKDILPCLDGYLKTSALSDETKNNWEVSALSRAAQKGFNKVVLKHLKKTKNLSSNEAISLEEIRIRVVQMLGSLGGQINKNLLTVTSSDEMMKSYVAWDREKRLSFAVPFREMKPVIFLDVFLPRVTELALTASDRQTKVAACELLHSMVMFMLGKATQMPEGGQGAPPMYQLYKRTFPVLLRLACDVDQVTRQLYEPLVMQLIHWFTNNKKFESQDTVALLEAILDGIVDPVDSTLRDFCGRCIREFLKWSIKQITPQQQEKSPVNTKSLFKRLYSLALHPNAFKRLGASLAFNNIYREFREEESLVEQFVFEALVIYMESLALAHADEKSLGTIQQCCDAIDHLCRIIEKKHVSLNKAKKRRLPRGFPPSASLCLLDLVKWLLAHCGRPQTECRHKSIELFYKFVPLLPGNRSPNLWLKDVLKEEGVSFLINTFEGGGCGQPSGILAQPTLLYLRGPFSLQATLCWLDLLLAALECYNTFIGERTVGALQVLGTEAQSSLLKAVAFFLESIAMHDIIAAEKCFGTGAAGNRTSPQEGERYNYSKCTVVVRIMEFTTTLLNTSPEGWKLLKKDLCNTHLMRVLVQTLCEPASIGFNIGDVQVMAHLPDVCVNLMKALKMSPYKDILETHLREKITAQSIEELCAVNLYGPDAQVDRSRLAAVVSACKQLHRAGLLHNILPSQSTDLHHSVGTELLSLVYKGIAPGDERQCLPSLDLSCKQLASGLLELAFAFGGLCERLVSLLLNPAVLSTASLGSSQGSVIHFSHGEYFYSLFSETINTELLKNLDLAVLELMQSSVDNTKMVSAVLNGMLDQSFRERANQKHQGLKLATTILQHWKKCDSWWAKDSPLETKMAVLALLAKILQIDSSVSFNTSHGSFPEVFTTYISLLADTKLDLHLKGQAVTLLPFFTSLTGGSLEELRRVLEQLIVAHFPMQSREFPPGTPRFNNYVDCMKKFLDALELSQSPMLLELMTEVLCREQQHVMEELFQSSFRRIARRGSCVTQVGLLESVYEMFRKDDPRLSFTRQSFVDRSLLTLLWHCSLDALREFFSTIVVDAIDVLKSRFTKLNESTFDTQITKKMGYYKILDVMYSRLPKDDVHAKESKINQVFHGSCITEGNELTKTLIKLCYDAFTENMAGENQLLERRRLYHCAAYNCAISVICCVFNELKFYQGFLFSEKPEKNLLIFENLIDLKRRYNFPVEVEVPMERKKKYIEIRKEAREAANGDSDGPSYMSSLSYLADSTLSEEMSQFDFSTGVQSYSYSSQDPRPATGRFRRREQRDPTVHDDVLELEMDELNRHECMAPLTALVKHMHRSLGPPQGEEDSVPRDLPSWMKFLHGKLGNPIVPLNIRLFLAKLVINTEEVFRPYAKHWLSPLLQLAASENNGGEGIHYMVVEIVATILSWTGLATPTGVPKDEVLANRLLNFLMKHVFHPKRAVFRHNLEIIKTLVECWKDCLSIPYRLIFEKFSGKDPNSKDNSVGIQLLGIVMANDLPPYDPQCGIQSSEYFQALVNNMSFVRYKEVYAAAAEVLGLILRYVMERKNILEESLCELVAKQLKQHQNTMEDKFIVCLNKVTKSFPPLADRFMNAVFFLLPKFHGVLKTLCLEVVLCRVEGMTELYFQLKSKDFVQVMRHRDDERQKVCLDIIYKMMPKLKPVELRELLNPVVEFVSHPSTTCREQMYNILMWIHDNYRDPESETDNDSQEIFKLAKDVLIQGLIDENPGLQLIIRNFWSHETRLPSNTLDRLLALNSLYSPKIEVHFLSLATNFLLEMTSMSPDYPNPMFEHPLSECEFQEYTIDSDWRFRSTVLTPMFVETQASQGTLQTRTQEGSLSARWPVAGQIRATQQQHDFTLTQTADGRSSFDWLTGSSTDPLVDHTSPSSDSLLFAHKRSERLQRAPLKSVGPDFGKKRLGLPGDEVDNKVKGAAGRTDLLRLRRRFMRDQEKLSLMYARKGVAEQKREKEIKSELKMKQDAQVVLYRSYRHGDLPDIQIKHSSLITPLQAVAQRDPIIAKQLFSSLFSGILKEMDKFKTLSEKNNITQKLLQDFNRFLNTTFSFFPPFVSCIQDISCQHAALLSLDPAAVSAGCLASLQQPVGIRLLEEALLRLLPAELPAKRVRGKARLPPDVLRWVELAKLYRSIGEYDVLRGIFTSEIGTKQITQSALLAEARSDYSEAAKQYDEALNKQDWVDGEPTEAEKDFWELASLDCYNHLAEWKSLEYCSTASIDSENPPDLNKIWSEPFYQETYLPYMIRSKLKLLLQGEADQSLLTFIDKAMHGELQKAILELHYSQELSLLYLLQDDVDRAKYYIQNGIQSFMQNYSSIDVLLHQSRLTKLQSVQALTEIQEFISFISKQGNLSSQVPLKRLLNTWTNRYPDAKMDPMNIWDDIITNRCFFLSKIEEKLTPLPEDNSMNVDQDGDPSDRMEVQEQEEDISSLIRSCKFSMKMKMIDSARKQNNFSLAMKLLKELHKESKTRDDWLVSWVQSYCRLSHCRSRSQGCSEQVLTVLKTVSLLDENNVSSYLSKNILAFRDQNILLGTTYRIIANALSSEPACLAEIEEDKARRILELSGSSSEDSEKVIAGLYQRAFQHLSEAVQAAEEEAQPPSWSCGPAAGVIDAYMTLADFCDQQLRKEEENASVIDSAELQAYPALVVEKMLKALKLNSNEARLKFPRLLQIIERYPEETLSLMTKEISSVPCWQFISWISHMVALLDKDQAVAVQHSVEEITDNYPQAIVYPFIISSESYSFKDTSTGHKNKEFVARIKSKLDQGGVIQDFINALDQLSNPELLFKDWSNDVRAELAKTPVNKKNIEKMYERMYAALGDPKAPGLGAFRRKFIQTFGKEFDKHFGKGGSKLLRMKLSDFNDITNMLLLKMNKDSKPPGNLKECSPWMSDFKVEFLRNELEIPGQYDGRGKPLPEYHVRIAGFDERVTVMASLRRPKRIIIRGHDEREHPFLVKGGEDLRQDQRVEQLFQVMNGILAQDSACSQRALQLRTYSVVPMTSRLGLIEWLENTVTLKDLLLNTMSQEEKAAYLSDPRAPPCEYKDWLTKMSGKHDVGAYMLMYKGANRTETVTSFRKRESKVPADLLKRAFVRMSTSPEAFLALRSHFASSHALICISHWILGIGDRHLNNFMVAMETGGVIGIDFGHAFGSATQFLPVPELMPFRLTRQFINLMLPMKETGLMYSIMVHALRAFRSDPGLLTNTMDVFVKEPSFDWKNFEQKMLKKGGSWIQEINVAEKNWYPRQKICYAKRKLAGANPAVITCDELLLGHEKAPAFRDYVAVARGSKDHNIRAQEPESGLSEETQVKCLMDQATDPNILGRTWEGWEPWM
Serine/threonine-protein kinase Nek4 (Homo sapiens), sequence (P51957 whole entry, looked up): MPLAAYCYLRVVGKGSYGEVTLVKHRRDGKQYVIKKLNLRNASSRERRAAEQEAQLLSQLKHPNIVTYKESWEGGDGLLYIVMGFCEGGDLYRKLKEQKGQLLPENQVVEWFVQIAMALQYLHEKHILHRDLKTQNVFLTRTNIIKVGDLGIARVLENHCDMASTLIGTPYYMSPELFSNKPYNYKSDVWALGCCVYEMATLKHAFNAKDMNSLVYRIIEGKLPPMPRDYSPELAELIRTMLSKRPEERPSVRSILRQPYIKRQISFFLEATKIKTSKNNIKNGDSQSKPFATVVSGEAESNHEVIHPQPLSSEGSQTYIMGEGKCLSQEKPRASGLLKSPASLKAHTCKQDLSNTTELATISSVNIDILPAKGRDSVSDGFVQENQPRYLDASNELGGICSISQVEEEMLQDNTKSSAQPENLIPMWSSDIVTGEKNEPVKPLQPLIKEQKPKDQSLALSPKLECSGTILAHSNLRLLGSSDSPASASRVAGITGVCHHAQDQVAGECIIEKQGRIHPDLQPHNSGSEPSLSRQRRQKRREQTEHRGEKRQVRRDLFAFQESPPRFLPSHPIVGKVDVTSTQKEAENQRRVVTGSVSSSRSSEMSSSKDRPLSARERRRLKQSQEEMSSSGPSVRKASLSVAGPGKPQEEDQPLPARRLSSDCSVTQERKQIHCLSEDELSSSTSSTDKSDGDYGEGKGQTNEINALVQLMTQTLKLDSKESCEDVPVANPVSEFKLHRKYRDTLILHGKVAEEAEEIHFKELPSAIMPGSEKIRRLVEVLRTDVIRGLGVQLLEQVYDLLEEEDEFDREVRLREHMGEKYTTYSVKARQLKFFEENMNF

For the compound `CCN1CCN(Cc2ccc(NC(=O)c3ccc(C)c(/C=C/c4cnc5[nH]ccc5c4OC)c3)cc2C(F)(F)F)CC1`, the inhibition in [1] is 50.4%; in [3] it was -0.9%; in experiment [4], 30.2%. Also, the residual activity in experiment [2] came to 3.6%. This compound also registered a percent of control on Ephrin type-A receptor 2 of 1.2%.
On to `CCN1CCN(Cc2ccc(NC(=O)c3ccc(C)c(Oc4ccnc5[nH]ccc45)c3)cc2C(F)(F)F)CC1`, for which the inhibition is 18.9% in experiment [5]; 9.1% in [6]; 4.1% in experiment [7]; -3.3% in experiment [8]; 0.7% in [9]; 17.6% in experiment [10]. In addition, the inhibition was found to be 15.5% in experiment [11]; 11.6% in [12]; 6% in experiment [13]; 30.8% in [14]; 4% in experiment [15]. The inhibition result in [16] is “inactive”.
`CNc1cc(Oc2cc(C(=O)Nc3cc(N4CCN(C)CC4)cc(C(F)(F)F)c3)ccc2C)ncn1`: the inhibition in [17] was 2.6%; in [18] it was 2.7%; in experiment [19], 15%; in experiment [20] it was 12.4%; in experiment [21], -5%; in [22], 31.6%.

One may read the inhibition as the drop in the measured response relative to a control, in per cent. By residual activity is commonly meant the share of the control activity or signal that is left under treatment. A higher residual activity goes with a small loss of activity.
